Target: T1, full length active recombinant SYK enzyme (Homo sapiens, UniProt P43405)
T1 construct: full length active recombinant SYK enzyme (Millipore, Calif.); purchased Millipore
Test: Inhibition of Syk tyrosine phosphorylation activity (LANCE TR-FRET kinase assay)
Type: biochemical
Settings: activity in the Syk assays, class symbols
Method in brief: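 IC50 was derived by non-linear regression of TR-FRET signal (Eu-W1024-PY100 donor, streptavidin-APC acceptor) read 1 h after EDTA quench. The kinase step ran 1 h at room temperature with 1 nM full-length SYK, 550 nM biotinylated DEEDYESP substrate and 100 μM ATP in Tris pH 7.5/MgCl2/DTT at 3% final DMSO.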

Structure (SMILES)	IC50
NC(=O)c1ncc(NC2(C(N)=O)CC2)nc1Nc1cnc2ccc(F)cc2c1 [Example 175, 5-(1-carbamoylcyclopropylamino)-3-(6-fluoroquinolin-3-ylamino)pyrazine-2-carboxamide]	1 to 10 nM
Cc1ccc(Nc2nc(N[C@@H]3CCCC(F)(F)[C@@H]3N)cnc2C(N)=O)cc1C [Example 169, 5-((1R,2R)-2-amino-3,3-difluorocyclohexylamino)-3-(3,4-dimethylphenylamino)pyrazine-2-carboxamide]	1 to 10 nM
C[C@@H](Nc1cnc(C(N)=O)c(Nc2cnc3ccc(F)cc3c2)n1)C(N)=O [Example 243, (R)-5-(1-amino-1-oxopropan-2-ylamino)-3-(6-fluoroquinolin-3-ylamino)pyrazine-2-carboxamide]	1 to 10 nM
CC(C)(C)C[C@@H](Nc1cnc(C(N)=O)c(Nc2ccnc(F)c2)n1)C(N)=O [Example 265, (R)-5-(1-amino-4,4-dimethyl-1-oxopentan-2-ylamino)-3-(2-fluoropyridin-4-ylamino)pyrazine-2-carboxamide]	1 to 10 nM
CC[C@@H](Nc1cnc(C(N)=O)c(Nc2cccc3ncccc23)n1)C(N)=O [Example 375, (R)-5-(1-amino-1-oxobutan-2-ylamino)-3-(quinolin-5-ylamino)pyrazine-2-carboxamide]	1 to 10 nM
NC(=O)c1ncc(N[C@@H]2CCCC[C@@H]2N)nc1N[C@H]1COc2ccccc2C1 [Example 415, 5-(((1R,2S)-2-aminocyclohexyl)amino)-3-((R)-chroman-3-ylamino)pyrazine-2-carboxamide]	10 to 100 nM
NC(=O)c1ncc(N[C@@H]2CCCC[C@@H]2N)nc1Nc1cnc2scnc2c1 [Example 434, 5-(((1R,2S)-2-aminocyclohexyl)amino)-3-(thiazolo[5,4-b]pyridin-6-ylamino)pyrazine-2-carboxamide]	1 to 10 nM
NC(=O)c1ncc(N[C@@H]2CCCC[C@@H]2N)nc1N[C@H]1CCc2ccccc21 [Example 39, 5-((1R,2S)-2-aminocyclohexylamino)-3-((S)-2,3-dihydro-1H-inden-1-ylamino)pyrazine-2-carboxamide]	100 to 1000 nM
NC(=O)c1ncc(N[C@@H]2CCNC2)nc1Nc1cncc(F)c1 [Example 115, (R)-3-((5-fluoropyridin-3-yl)amino)-5-(pyrrolidin-3-ylamino)pyrazine-2-carboxamide]	100 to 1000 nM
NC(=O)c1ncc(N[C@@H]2CCCC[C@@H]2N)nc1Nc1ccc(-n2cccn2)cc1 [Example 276, 3-(4-(1H-pyrazol-1-yl)phenylamino)-5-((1R,2S)-2-aminocyclohexylamino)pyrazine-2-carboxamide]	1 to 10 nM
COc1ccc(Nc2nc(N[C@H](CC3CC3)C(N)=O)cnc2C(N)=O)cc1OC [Example 171, (R)-5-(1-amino-3-cyclopropyl-1-oxopropan-2-ylamino)-3-(3,4-dimethoxyphenylamino)pyrazine-2-carboxamide]	1 to 10 nM
NC(=O)c1ncc(N[C@H](CC2CC2)C(N)=O)nc1Nc1ccc2ncccc2c1 [Example 8, (R)-5-(1-amino-3-cyclopropyl-1-oxopropan-2-ylamino)-3-(quinolin-6-ylamino)pyrazine-2-carboxamide]	1 to 10 nM
CC(C)(C)C[C@@H](Nc1cnc(C(N)=O)c(Nc2snc3sccc23)n1)C(N)=O [Example 261, (R)-5-(1-amino-4,4-dimethyl-1-oxopentan-2-ylamino)-3-(thieno[2,3-c]isothiazol-3-ylamino)pyrazine-2-carboxamide]	1 to 10 nM
Cc1cc(Nc2nc(N[C@@H]3CCCC[C@@H]3N)cnc2C(N)=O)ccc1N1CCOCC1 [Example 143, 5-((1R,2S)-2-aminocyclohexylamino)-3-(3-methyl-4-morpholinophenylamino)pyrazine-2-carboxamide]	1 to 10 nM
C[C@@H](Nc1cnc(C(N)=O)c(Nc2cc(C3CC3)ns2)n1)C(N)=O [Example 239, (R)-5-(1-amino-1-oxopropan-2-ylamino)-3-(3-cyclopropylisothiazol-5-ylamino)pyrazine-2-carboxamide]	1 to 10 nM
